Reference: the supplement of paper PMC10307832

Tests used:
Test in all cases: relative viability (nuclei count vs DMSO), 5 days (fraction); higher = more cells survive
VE-821 + Palbociclib = compound: CS(=O)(=O)c1ccc(-c2cnc(N)c(C(=O)Nc3ccccc3)n2)cc1 [VE-821] + CC(=O)c1c(C)c2cnc(Nc3ccc(N4CCNCC4)cn3)nc2n(C2CCCC2)c1=O [Palbociclib] (partner 0.5 µM)
Outline: (§1)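 For relative viability, nuclei counts in treated wells were divided by those in vehicle wells. Lung cancer cell lines had been pin-tool dosed in 1536-well plates the day after seeding and cultured for 5 days, then fixed and stained in one step (final 0.05% Triton X-100, 1% formaldehyde, 1 ug/ml Hoechst) and imaged at 4×. Doses were one drug alone or a fixed anchor-drug dose plus five library-drug doses (not always all listed) in √10 steps, and values are duplicate-plate medians.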

VE-821 + Bortezomib = compound: CS(=O)(=O)c1ccc(-c2cnc(N)c(C(=O)Nc3ccccc3)n2)cc1 [VE-821] + CC(C)C[C@H](NC(=O)[C@H](Cc1ccccc1)NC(=O)c1cnccn1)B(O)O [Bortezomib] (partner 0.002 µM)
Outline: as §1

Vismodegib + Linsitinib = compound: CS(=O)(=O)c1ccc(C(=O)Nc2ccc(Cl)c(-c3ccccn3)c2)c(Cl)c1 [Vismodegib] + C[C@]1(O)C[C@@H](c2nc(-c3ccc4ccc(-c5ccccc5)nc4c3)c3c(N)nccn32)C1 [Linsitinib] (partner 1 µM)
Outline: as §1

Ruxolitinib + OSI-027 = compound: N#CC[C@H](C1CCCC1)n1cc(-c2ncnc3[nH]ccc23)cn1 [Ruxolitinib] + COc1cccc2cc(-c3nc([C@H]4CC[C@H](C(=O)O)CC4)n4ncnc(N)c34)[nH]c12 [OSI-027] (partner 0.5 µM)
Outline: as §1

Cell Line | relative viability (VE-821 + Palbociclib; first compound 0.08 µM) | relative viability (VE-821 + Palbociclib; first compound 0.253 µM) | relative viability (VE-821 + Palbociclib; first compound 0.8 µM) | relative viability (VE-821 + Palbociclib; first compound 2.53 µM) | relative viability (VE-821 + Palbociclib; first compound 8 µM) | relative viability (VE-821 + Bortezomib; first compound 0.08 µM) | relative viability (VE-821 + Bortezomib; first compound 0.253 µM) | relative viability (VE-821 + Bortezomib; first compound 0.8 µM) | relative viability (VE-821 + Bortezomib; first compound 2.53 µM) | relative viability (VE-821 + Bortezomib; first compound 8 µM) | relative viability (Vismodegib + Linsitinib; first compound 0.08 µM) | relative viability (Vismodegib + Linsitinib; first compound 0.253 µM) | relative viability (Vismodegib + Linsitinib; first compound 0.8 µM) | relative viability (Vismodegib + Linsitinib; first compound 2.53 µM) | relative viability (Vismodegib + Linsitinib; first compound 8 µM) | relative viability (Ruxolitinib + OSI-027; first compound 0.08 µM) | relative viability (Ruxolitinib + OSI-027; first compound 0.253 µM) | relative viability (Ruxolitinib + OSI-027; first compound 0.8 µM) | relative viability (Ruxolitinib + OSI-027; first compound 2.53 µM) | relative viability (Ruxolitinib + OSI-027; first compound 8 µM)
HCC-78 | 0.491 | 0.453 | 0.482 | 0.489 | 0.461 | 0.697 | 0.561 | 0.471 | 0.549 | 0.303 | 0.474 | 0.477 | 0.406 | 0.588 | 0.488 | 0.36 | 0.337 | 0.33 | 0.383 | 0.365
HCC-366 | 0.668 | 0.378 | 0.303 | 0.0939 | 0.0558 | 1.06 | 1.03 | 1.04 | 0.625 | 0.062 | 0.628 | 0.636 | 0.575 | 0.563 | 0.703 | 0.984 | 0.771 | 1.01 | 0.819 | 0.828
HCC-827 | 0.515 | 0.516 | 0.405 | 0.531 | 0.522 | 1.01 | 0.996 | 1.04 | 1.12 | 1.08 | 0.926 | 0.906 | 0.949 | 0.896 | 1.04 |  | 0.516 | 0.586 | 0.537 | 0.714
HOP-62 | 0.508 | 0.459 | 0.471 | 0.463 | 0.461 | 0.726 | 0.389 | 0.889 | 0.838 | 0.718 | 0.988 | 0.873 | 1.16 | 0.748 | 0.979 | 0.874 | 0.724 | 0.91 | 0.825 | 0.824
IA-LM |  |  |  |  |  | 0.762 | 0.795 | 0.781 | 0.803 | 0.764 | 0.629 | 0.493 | 0.68 | 0.579 | 0.63 |  |  |  |  | 
LC-2-ad | 0.557 | 0.473 | 0.559 | 0.504 | 0.514 | 1.19 | 1.06 | 0.569 | 1.17 | 1.07 | 0.824 | 0.794 | 0.849 | 0.82 | 0.828 |  | 0.667 | 0.859 | 0.733 | 0.524
LK-2 | 0.762 | 0.737 | 0.781 | 0.563 | 0.639 |  |  |  |  |  | 0.427 | 0.49 | 0.539 | 0.46 | 0.378 | 0.222 | 0.187 | 0.18 | 0.182 | 0.214
NCI-H358 | 0.13 | 0.14 | 0.134 | 0.135 | 0.133 |  |  |  |  |  | 0.777 | 0.667 | 0.712 | 0.817 | 0.765 | 0.417 | 0.654 | 0.754 | 0.406 | 0.565
NCI-H522 | 1.06 | 1.15 | 0.754 | 0.932 | 0.999 |  |  |  |  |  |  |  |  |  |  | 0.811 | 0.667 | 0.78 | 0.628 | 0.605
NCI-H596 |  |  |  |  |  | 1.21 | 1.02 | 1.08 | 1.09 | 1.09 | 0.976 | 1.07 | 1.1 | 1.01 | 1.15 | 0.826 | 0.699 | 0.841 | 0.69 | 0.758
NCI-H1299 |  |  |  |  |  | 0.992 | 1 | 0.973 | 0.924 | 0.972 | 0.979 | 0.952 | 0.994 | 0.929 | 0.991 |  |  |  |  | 
NCI-H1395 | 0.725 | 0.658 | 0.549 | 0.586 | 0.516 |  |  |  |  |  | 1.07 | 1.36 | 0.961 | 0.961 | 1.18 | 0.578 | 0.576 | 0.661 | 0.564 | 0.666
NCI-H1563 |  |  |  |  |  | 0.908 | 0.888 | 0.784 | 0.774 | 0.763 | 1.17 | 1.34 | 1.26 | 1.01 | 1.2 | 0.803 | 0.721 | 0.714 | 0.658 | 0.675
NCI-H1623 |  |  |  |  |  |  |  |  |  |  |  |  |  |  |  | 0.48 | 0.461 | 0.469 | 0.439 | 0.576
NCI-H1648 | 0.269 |  | 0.252 | 0.265 | 0.349 |  |  |  |  |  |  |  |  |  |  |  | 0.269 | 0.257 | 0.308 | 0.279
NCI-H1650 | 0.342 | 0.324 | 0.329 | 0.4 | 0.336 | 0.194 | 0.195 | 0.339 | 0.187 | 0.213 |  |  |  |  |  |  | 0.651 | 0.98 | 0.769 | 0.641
NCI-H1703 |  |  |  |  |  | 0.335 | 0.346 | 0.339 | 0.289 | 0.22 | 0.928 | 0.77 | 0.928 | 0.618 | 1.19 |  |  |  |  | 
NCI-H1793 | 0.361 | 0.32 |  | 0.447 | 0.333 |  |  |  |  |  |  | 0.701 | 0.903 | 1.04 | 0.824 | 0.346 | 0.239 | 0.374 | 0.253 | 0.26
NCI-H1944 | 0.408 | 0.325 | 0.256 | 0.354 | 0.236 |  |  |  |  |  | 1.15 | 1.33 | 1.16 | 1.19 | 1.2 | 0.398 | 0.38 | 0.368 | 0.374 | 0.408
NCI-H2170 | 0.432 | 0.414 | 0.381 | 0.45 | 0.32 |  |  |  |  |  |  |  |  |  |  | 0.659 | 0.68 | 0.713 | 0.567 | 0.667
NCI-H2342 | 0.503 | 0.557 | 0.528 | 0.521 | 0.494 |  |  |  |  |  |  |  |  |  |  | 0.557 | 0.564 | 0.674 | 0.585 | 0.736
SK-MES-1 | 0.339 | 0.345 | 0.323 | 0.296 | 0.287 |  |  |  |  |  | 1.04 | 1.07 | 1.08 | 0.973 | 1.07 | 0.676 | 0.587 | 0.702 | 0.534 | 0.512
SW 900 | 0.549 | 0.52 | 0.46 | 0.542 | 0.36 |  |  |  |  |  |  |  |  |  |  | 0.552 | 0.495 | 0.757 | 0.585 | 0.496
